Results taken from patent publication US20150118726A1, “Processes Using Antibiotic Alternatives In Bioethanol Production” (Buckman Laboratories International, Inc., priority 2010, published 2015).
One block for each compound: values may come before it.

Assays:
[1] = test system: Lactobacillus fermentans; test: MRS broth test of biocide combinations (Kull synergism method); type: cell-based; settings: 25% MRS broth, 37° C., 24 hours
Protocol: Lactobacilli MRS broth (25% strength) was prepared and dispensed in 10 ml amounts into test tubes and autoclaved for 20 minutes at 121° C. The biocides were added to the test tubes in the desired concentrations, and then 100 microliters of an overnight broth of Lactobacillus fermentans were added to the respective test tubes and incubated at 37° C. for 24 hours.
QA/Qa+QB/Qb is less than 1.
Qa=Concentration of Compound A in parts per million, acting alone, which produced an endpoint; Qb=Concentration of Compound B in parts per million, acting alone, which produced an endpoint; QA=Concentration of Compound A in parts per million, in the mixture, which produced an endpoint; QB=Concentration of Compound B in parts per million, in the mixture, which produced an endpoint.
When the sum of QA/Qa and QB/Qb is greater than one, antagonism is indicated and when the sum is equal to one, additivity is indicated. When the sum of this value is less than one, synergism exists.

[2] = Persistence of DBNPA under fermentation tank conditions; type: physicochemical; settings: under the conditions in the fermentation tank, based on laboratory work
Protocol: Under the conditions in the fermentation tank, DBNPA is expected to last intact only about 1-2 hours, based on laboratory work. The stillage, i.e., fermented unevaporated product (post “beer tank”) of distillation, is centrifuged, and dried (e.g., about 1 hour at about 250-300° F.), then the mixture is pumped over to a final tank where it is called the DDGS. DDGS is about ⅓ mass of the starting raw material for corn. The chemistry of DBNPA is not expected to endure and survive the centrifugation and heat of drying prior to entering distillers dried grains with solubles (DDGS) stage. In the corn-to-ethanol process, for example, DBNPA is expected to degrade to carbon dioxide and water vapor, and, as such, would have low environmental impact. […] The application of DBNPA avoids the use of antibiotics, which can remain stable throughout the process. The use of DBNPA makes the use of antibiotics unnecessary. The use of DBNPA is more economical since the cost of antibiotics (as the only treatment widely employed) can be relatively high and costly to the fermentation. […]

[3] = test system: L. plantarum; test: Corn mash ethanol fermentation infected with L. plantarum, treated with nonoxidizing biocide; type: cell-based, Lactobacillus plantarum; settings: based on experimental results
Protocol: (§1) Experiments were conducted to evaluate the effectiveness of a nonoxidizing biocide as an antimicrobial agent for control of Lactobacillus infections in ethanol fermentation. The nonoxidizing biocide was BRONAM® 20 (20% 2,2-dibromo-3-nitrilopropionamide). The lactobacilli was L. plantarum. The yeast was Saccharomyces cereviseae. Corn mashes containing approximately 30% (w/w) dry solids were used.
For slurry preparation, the moisture of ground corn was determined gravimetrically using a moisture balance by measuring the mass loss that occurred upon drying. The amount of corn, deionized (DI) water, and enzyme needed to prepare 160 g of corn slurry at a total dry solids concentration of 30% (w/w) for each replicate was determined. […]
For fermentation, once the mash was cooled, the entire contents (approximately 160 g) of each Labomat beaker were transferred to a sterile 250-ml Erlenmeyer flask. The masses of the mash and flasks were recorded, and the mass of mash transferred to the fermentation flasks was calculated. […]
The L. plantarum culture was prepared for inoculation by growing throughout the day in 100-ml of MRS broth. […] The initial concentration of the bacteria was determined by plating serial dilutions of the culture on MRS agar containing cycloheximide and incubating at 32° C. for 2 days before counting colonies. […]

[4] = test system: Saccharomyces cereviseae; test: Corn mash ethanol fermentation: effect of biocide on yeast / fermentation progress; type: cell-based, Saccharomyces cerevisiae
Protocol: as §1
A 0.2-g/ml suspension of yeast (Saccharomyces cerevisiae; Ethanol Red; Fermentis, Marcq-en-Baroeul, France) was prepared in a sterile 250-ml flask. This suspension was incubated and mixed for 20 minutes at 40° C. before inoculation into the fermentation flasks. Each fermentation flask was inoculated with 160 μl of the yeast suspension to attain an initial concentration of 10^7 yeast cells/ml. After the initial 1-hr incubation with bacteria, the flasks were inoculated with yeast and dosed with BRONAM® 20. […]
The mass of each flask was recorded after all additions were made, and the sanitized fermentation traps were reinserted into each flask. The mass of each flask with the trap in place was also recorded. […] The mass of each flask with the traps in place were measured periodically throughout fermentation to estimate the rate of fermentation (the mass of the fermentation flasks decreases when carbon dioxide is lost by bubbling out of the fermentation traps). […]

Compound: O=[N+]([O-])C(Br)(CO)CO [2-bromo-2-nitropropane-1,3-diol]
- Qb, concentration of Compound B acting alone which produced an endpoint ([1]; Example 2): 50 ppm

- time DBNPA lasts intact [2]: 1 to 2 h
Compound: N#CC(Br)(Br)C(N)=O [2,2-dibromo-3-nitrilopropionamide]
- Qb, concentration of Compound B acting alone which produced an endpoint ([1]; Example 3): 100 ppm
- effect on bacteria (lactobacilli) [3]: kills the bacteria
- effect on yeast involved in fermentation [4]: does not kill the yeast

Compound: Nisin
- Qa, concentration of Compound A acting alone which produced an endpoint ([1]; Example 2): 1.0 ppm
- Qa, concentration of Compound A acting alone which produced an endpoint ([1]; Example 3): 1.0 ppm
